The source of these data is US12365687B2 (Hoffmann-La Roche Inc., priority 2021, dated 2025).

SMILES strings stand for the structures. pKi: −log10 of the molar value. A value given as a limit tells only on which side of the number the result lay.

Broadly, the pKi is the Ki on a negative log10 scale, so that one unit is a factor of ten.

The target of assay [1] is α2β2γ1 GABAA receptor subtype (Homo sapiens (Human), UniProt P47869+Q8N1C3). In words: Two-electrode voltage clamp electrophysiology in Xenopus oocytes expressing GABAA receptors (modulation of GABA EC20 current). The assay is classed as cell-based. Particulars: for Efficacy (GABA)%: % modulation of GABA EC20 = 100*(Fold increase-1), α2β2γ1 oocytes, compound at approx. 30-fold Ki; for Fold increase h-GABA-A α2β2γ1 oocyte @ 30-fold Ki: Xenopus oocytes expressing α2β2γ1, compound at approx. 30-fold its Ki α2β2γ1, GABA EC20 current. The gist of the method: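 Two-electrode voltage clamp at −80 mV, room temperature, 3-5 days after mRNA injection into oocytes. GABA applied at EC20 for 1.5 min, twice, with compound during second application; at least 3 oocytes per concentration. Efficacy = extremum of point-by-point current ratio, expressed as 100×(fold increase−1).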
For orientation: Two-electrode voltage clamp is typically applied to oocytes expressing channels or transporters.

Assay [2] concerns the target human GABAA α5β2γ1 receptor (Homo sapiens (Human), UniProt P31644+Q8N1C3). In words: Radioligand binding assay for γ1-containing GABAA subtypes, [3H]RO7239181 competition (α5β2γ1).
Assay [3] concerns the target human GABAA α1β3γ2 receptor (Homo sapiens (Human), UniProt P14867+P18507). In words: Radioligand binding assay for γ2-containing GABAA subtypes, [3H]Flumazenil competition (α1β3γ2). Particulars: for γ2/γ1 Selectivity Ratio: Ki α1β3γ2 (nM)/Ki α2β2γ1 (nM); for LogSel: Log[Ki α1β3γ2 (nM)/Ki α2β2γ1 (nM)].
Assay [4] concerns the target human GABAA α2β2γ1 receptor (Homo sapiens (Human), UniProt P47869+Q8N1C3). In words: Radioligand binding assay for γ1-containing GABAA subtypes, [3H]RO7239181 competition (α2β2γ1).
The mark [5] stands for this setting: Ki h-GABAA α2β2γ1, [3H]RO7239181 competition binding, human GABAA α2β2γ1.
Setting [6] is: Ki h-GABAA α2β2γ1, displacement of [3H]RO7239181, membranes of HEK293F cells expressing human receptors, means of two determinations.

`C[C@H](O)CNC(=O)c1nc2n(n1)-c1ccc(Cl)c(Cl)c1C(c1c(F)cccc1F)=N[C@H]2C` [Example 63, (4S)-7,8-dichloro-6-(2,6-difluorophenyl)-4-methyl-N-[(2S)-2-hydroxypropyl]-4H-[1,2,4]triazolo[1,5-a][1,4]benzodiazepine-2-carboxamide]: the “Efficacy (GABA)%” value in assay [1] came to 79%. Besides, in assay [1], the “Fold increase h-GABA-A α2β2γ1 oocyte @ 30-fold Ki” value stood at 1.79. Also, the pKi in assay [2] is 8.88; in assay [3], 6.22; in assay [4] (setting [5]) it was 8.38; in assay [4] (setting [6]) it was 8.37. The “γ2/γ1 Selectivity Ratio” value in assay [3] is recorded as 142.6. Also, the LogSel in assay [3] is on record as 2.15.

Turning to `C[C@@H]1N=C(c2ncccc2F)c2c(ccc(C(F)(F)F)c2Cl)-n2nc(NC(=O)NC3CC3)nc21` [Example 143, 1-[(4S)-7-chloro-6-(3-fluoro-2-pyridyl)-4-methyl-8-(trifluoromethyl)-4H-[1,2,4]triazolo[1,5-a][1,4]benzodiazepin-2-yl]-3-cyclopropyl-urea], the “Efficacy (GABA)%” value in assay [1] was determined as 110%. Besides, the “Fold increase h-GABA-A α2β2γ1 oocyte @ 30-fold Ki” value in assay [1] worked out at 2.10. Also, the pKi was 8.13 in assay [2], 4.87 in assay [3], 7.34 in assay [4] (setting [5]) and 7.34 in assay [4] (setting [6]). Also, in assay [3], the “γ2/γ1 Selectivity Ratio” value turned out to be 296.6. The compound also returned a LogSel in assay [3] of 2.47.

In the case of `Cc1c(C(=O)NCCO)nc2n1-c1ccc(C(F)(F)F)c(Cl)c1C(c1ncccc1F)=N[C@H]2C` [Example 154, (4S)-7-chloro-6-(3-fluoro-2-pyridyl)-N-(2-hydroxyethyl)-1,4-dimethyl-8-(trifluoromethyl)-4H-imidazo[1,2-a][1,4]benzodiazepine-2-carboxamide], in assay [1], the “Efficacy (GABA)%” value is 191% and the “Fold increase h-GABA-A α2β2γ1 oocyte @ 30-fold Ki” value is 2.91. For the same compound, the pKi in assay [2] was 7.64. In assay [3], the pKi is 4.94, the “γ2/γ1 Selectivity Ratio” value was 166.6 and the LogSel stood at 2.22. For the same compound, the pKi in assay [4] (setting [5]) was 7.16. In assay [4] (setting [6]), the pKi was 7.16.

For the compound `C[C@@H]1N=C(c2ncccc2F)c2c(ccc(Cl)c2Cl)-n2nc(C(=O)N3CC(O)C3)nc21` [Example 44, [(4S)-7,8-dichloro-6-(3-fluoro-2-pyridyl)-4-methyl-4H-[1,2,4]triazolo[1,5-a][1,4]benzodiazepin-2-yl]-(3-hydroxyazetidin-1-yl)methanone], in assay [1], the “Efficacy (GABA)%” value is on record as 133% and the “Fold increase h-GABA-A α2β2γ1 oocyte @ 30-fold Ki” value was determined as 2.33. In assay [2], this compound gave a pKi of 8.02. In assay [3], the negative logarithm of the Ki (pKi) is 5.18, the “γ2/γ1 Selectivity Ratio” value worked out at 255.1 and the LogSel was determined as 2.41. The compound further had a pKi in assay [4] (setting [5]) of 7.59. The compound also gave a pKi in assay [4] (setting [6]) of 7.59.

On to `C[C@@H]1N=C(c2ncccc2F)c2c(ccc(C(F)(F)F)c2Cl)-n2nc(C(=O)N3CC4(COC4)C3)nc21` [Example 112, [(4S)-7-chloro-6-(3-fluoro-2-pyridyl)-4-methyl-8-(trifluoromethyl)-4H-[1,2,4]triazolo[1,5-a][1,4]benzodiazepin-2-yl]-(2-oxa-6-azaspiro[3.3]heptan-6-yl)methanone], for which, in assay [1], the “Efficacy (GABA)%” value was 136% and the “Fold increase h-GABA-A α2β2γ1 oocyte @ 30-fold Ki” value was 2.36. Moreover, the pKi in assay [2] is 8.01. In assay [3], the pKi is below 4.52, the “γ2/γ1 Selectivity Ratio” value worked out at 484.1 and the LogSel was determined as 2.68. In assay [4] (setting [5]), this compound showed a pKi of 7.21. Moreover, in assay [4] (setting [6]), the pKi is 7.21.

For the compound `C[C@@H]1N=C(c2c(F)cccc2F)c2c(ccc(Cl)c2Cl)-n2nc(C3CC3)nc21` [Example 49, (4S)-7,8-dichloro-2-cyclopropyl-6-(2,6-difluorophenyl)-4-methyl-4H-[1,2,4]triazolo[1,5-a][1,4]benzodiazepine], the “Efficacy (GABA)%” value in assay [1] came to 75%. For the same compound, the “Fold increase h-GABA-A α2β2γ1 oocyte @ 30-fold Ki” value in assay [1] stood at 1.75. The pKi in assay [2] is 8.85; in assay [3], 6.21; in assay [4] (setting [5]), 7.80; in assay [4] (setting [6]) it was 7.80. In assay [3], the “γ2/γ1 Selectivity Ratio” value was 39.5. In assay [3], this compound returned a LogSel of 1.60.
